Results: PubChem BioAssay AID1259407 (Chemical Carcinogenesis Research Information System (CCRIS), 2018)
The source made the active and inactive calls. How the calls were made is not given here.

Tested on: CCRIS mutagenicity, Ames/micronucleus/aberration tests
Assay: CCRIS mutagenicity studies
[1] = Test System: AMES SALMONELLA TYPHIMURIUM, Strain/Indicator: TA98, Metabolic Activation: NONE, Method: PREINCUBATION
[2] = Test System: AMES SALMONELLA TYPHIMURIUM, Strain/Indicator: TA98, Metabolic Activation: RAT, LIVER, S-9, AROCLOR 1254, Method: PREINCUBATION
[3] = Test System: AMES SALMONELLA TYPHIMURIUM, Strain/Indicator: TA100, Metabolic Activation: NONE, Method: PREINCUBATION
[4] = Test System: AMES SALMONELLA TYPHIMURIUM, Strain/Indicator: TA100, Metabolic Activation: NONE, Method: STANDARD PLATE
[5] = Test System: AMES SALMONELLA TYPHIMURIUM, Strain/Indicator: TA98, Metabolic Activation: HAMSTER, LIVER, S-9, AROCLOR 1254 (10%), Method: PREINCUBATION
[6] = Test System: AMES SALMONELLA TYPHIMURIUM, Strain/Indicator: TA98, Metabolic Activation: RAT, LIVER, S-9, AROCLOR 1254 (10%), Method: PREINCUBATION
[7] = Test System: AMES SALMONELLA TYPHIMURIUM, Strain/Indicator: TA100, Metabolic Activation: HAMSTER, LIVER, S-9, AROCLOR 1254 (10%), Method: PREINCUBATION
[8] = Test System: AMES SALMONELLA TYPHIMURIUM, Strain/Indicator: TA100, Metabolic Activation: RAT, LIVER, S-9, AROCLOR 1254 (10%), Method: PREINCUBATION
[9] = Test System: AMES SALMONELLA TYPHIMURIUM, Strain/Indicator: TA1535, Metabolic Activation: HAMSTER, LIVER, S-9, AROCLOR 1254 (10%), Method: PREINCUBATION
[10] = Test System: AMES SALMONELLA TYPHIMURIUM, Strain/Indicator: TA1535, Metabolic Activation: NONE, Method: PREINCUBATION
[11] = Test System: AMES SALMONELLA TYPHIMURIUM, Strain/Indicator: TA1535, Metabolic Activation: RAT, LIVER, S-9, AROCLOR 1254 (10%), Method: PREINCUBATION
[12] = Test System: AMES SALMONELLA TYPHIMURIUM, Strain/Indicator: TA1537, Metabolic Activation: HAMSTER, LIVER, S-9, AROCLOR 1254 (10%), Method: PREINCUBATION
[13] = Test System: AMES SALMONELLA TYPHIMURIUM, Strain/Indicator: TA1537, Metabolic Activation: NONE, Method: PREINCUBATION
[14] = Test System: AMES SALMONELLA TYPHIMURIUM, Strain/Indicator: TA1537, Metabolic Activation: RAT, LIVER, S-9, AROCLOR 1254 (10%), Method: PREINCUBATION

Compound	mutagenic call [1]	mutagenic call [3]	mutagenic call [5]	mutagenic call [6]	mutagenic call [7]	mutagenic call [8]	mutagenic call [9]	mutagenic call [10]	mutagenic call [11]	mutagenic call [12]	mutagenic call [13]	mutagenic call [14]	other results
CC(=O)Nc1ccc(Oc2ccc(N=O)cc2)cc1	active; positive	active; positive	–	–	–	–	–	–	–	–	–	–	mutagenic call (Test System: AMES SALMONELLA TYPHIMURIUM, Strain/Indicator: TA98(1,8-DNP6), Metabolic Activation: NONE, Method: PREINCUBATION): active; positive; mutagenic call (Test System: AMES SALMONELLA TYPHIMURIUM, Strain/Indicator: TA98(1,8-DNP6), Metabolic Activation: RAT, LIVER, S-9, AROCLOR 1254, Method: PREINCUBATION): active; positive; mutagenic call (Test System: AMES SALMONELLA TYPHIMURIUM, Strain/Indicator: TA98(NR), Metabolic Activation: NONE, Method: PREINCUBATION): active; positive; mutagenic call (Test System: AMES SALMONELLA TYPHIMURIUM, Strain/Indicator: TA98(NR), Metabolic Activation: RAT, LIVER, S-9, AROCLOR 1254, Method: PREINCUBATION): active; positive; mutagenic call [2]: active; positive; mutagenic call (Test System: AMES SALMONELLA TYPHIMURIUM, Strain/Indicator: TA100(NR), Metabolic Activation: NONE, Method: PREINCUBATION): active; positive
CC(C)(Oc1ccc(C2CC2(Cl)Cl)cc1)C(=O)O (configuration not stated)	–	–	–	–	–	–	–	–	–	–	–	–	mutagenic call (Test System: AMES SALMONELLA TYPHIMURIUM, Strain/Indicator: TA98, Metabolic Activation: NONE): inactive; negative; mutagenic call (Test System: AMES SALMONELLA TYPHIMURIUM, Strain/Indicator: TA98, Metabolic Activation: RAT, LIVER, S-9, AROCLOR 1254): inactive; negative; mutagenic call (Test System: AMES SALMONELLA TYPHIMURIUM, Strain/Indicator: TA102, Metabolic Activation: NONE): inactive; negative; mutagenic call (Test System: AMES SALMONELLA TYPHIMURIUM, Strain/Indicator: TA102, Metabolic Activation: RAT, LIVER, S-9, AROCLOR 1254): inactive; negative; mutagenic call (Test System: AMES SALMONELLA TYPHIMURIUM, Strain/Indicator: TA104, Metabolic Activation: NONE): inactive; negative; mutagenic call (Test System: AMES SALMONELLA TYPHIMURIUM, Strain/Indicator: TA104, Metabolic Activation: RAT, LIVER, S-9, AROCLOR 1254): inactive; negative; mutagenic call (Test System: UDS RAT HEPATOCYTES, Strain/Indicator: BROMODEOXYURIDINE INCORP, Metabolic Activation: NONE, Method: FLOW CYTOMETRIC ANALYSIS): inactive; negative; mutagenic call (Test System: UDS RAT HEPATOCYTES, Strain/Indicator: THY INCORP, Metabolic Activation: NONE, Method: AUTORADIOGRAPHY): inactive; negative; mutagenic call (Test System: UDS RAT HEPATOCYTES, Strain/Indicator: THY INCORP, Metabolic Activation: NONE, Method: LIQUID SCINTILLATION COUNTING): inactive; negative
Cn1cnc(-c2ccccc2)c1[N+](=O)[O-]	–	–	–	–	–	–	–	–	–	–	–	–	mutagenic call [4]: active; positive
O=C1CCc2ccccc2O1	inactive; negative	inactive; negative	inactive; negative	inactive; negative	inactive; negative	inactive; negative	inactive; negative	inactive; negative	inactive; negative	inactive; negative	inactive; negative	inactive; negative	mutagenic call (Test System: AMES SALMONELLA TYPHIMURIUM, Strain/Indicator: TA98, Metabolic Activation: HAMSTER, LIVER, S-9, AROCLOR 1254, Method: PREINCUBATION): inactive; negative; mutagenic call [2]: inactive; negative; mutagenic call (Test System: AMES SALMONELLA TYPHIMURIUM, Strain/Indicator: TA100, Metabolic Activation: HAMSTER, LIVER, S-9, AROCLOR 1254, Method: PREINCUBATION): inactive; negative; mutagenic call (Test System: AMES SALMONELLA TYPHIMURIUM, Strain/Indicator: TA100, Metabolic Activation: RAT, LIVER, S-9, AROCLOR 1254, Method: PREINCUBATION): inactive; negative; mutagenic call (Test System: AMES SALMONELLA TYPHIMURIUM, Strain/Indicator: TA1535, Metabolic Activation: HAMSTER, LIVER, S-9, AROCLOR 1254, Method: PREINCUBATION): inactive; negative; mutagenic call (Test System: AMES SALMONELLA TYPHIMURIUM, Strain/Indicator: TA1535, Metabolic Activation: RAT, LIVER, S-9, AROCLOR 1254, Method: PREINCUBATION): inactive; negative; mutagenic call (Test System: AMES SALMONELLA TYPHIMURIUM, Strain/Indicator: TA1537, Metabolic Activation: HAMSTER, LIVER, S-9, AROCLOR 1254, Method: PREINCUBATION): inactive; negative; mutagenic call (Test System: AMES SALMONELLA TYPHIMURIUM, Strain/Indicator: TA1537, Metabolic Activation: RAT, LIVER, S-9, AROCLOR 1254, Method: PREINCUBATION): inactive; negative
Cc1cccc(C)c1C	–	–	–	–	–	–	–	–	–	–	–	–	mutagenic call (Test System: AMES SALMONELLA TYPHIMURIUM, Strain/Indicator: TA97A, Metabolic Activation: NONE, Method: STANDARD PLATE): active; positive; mutagenic call (Test System: AMES SALMONELLA TYPHIMURIUM, Strain/Indicator: TA97A, Metabolic Activation: RAT, LIVER, S-9, AROCLOR 1254, Method: STANDARD PLATE): inactive; negative; mutagenic call (Test System: AMES SALMONELLA TYPHIMURIUM, Strain/Indicator: TA98, Metabolic Activation: NONE, Method: STANDARD PLATE): active; positive; mutagenic call (Test System: AMES SALMONELLA TYPHIMURIUM, Strain/Indicator: TA98, Metabolic Activation: RAT, LIVER, S-9, AROCLOR 1254, Method: STANDARD PLATE): inactive; negative; mutagenic call [4]: active; positive; mutagenic call (Test System: AMES SALMONELLA TYPHIMURIUM, Strain/Indicator: TA100, Metabolic Activation: RAT, LIVER, S-9, AROCLOR 1254, Method: STANDARD PLATE): inactive; negative; mutagenic call (Test System: AMES SALMONELLA TYPHIMURIUM, Strain/Indicator: TA102, Metabolic Activation: NONE, Method: STANDARD PLATE): active; positive; mutagenic call (Test System: AMES SALMONELLA TYPHIMURIUM, Strain/Indicator: TA102, Metabolic Activation: RAT, LIVER, S-9, AROCLOR 1254, Method: STANDARD PLATE): inactive; negative
CCCC(=O)c1cc(O)c(O)cc1O	inactive; negative	inactive; negative	active; positive	inactive; negative	inactive; negative	active; positive	inactive; negative	inactive; negative	inactive; negative	inactive; negative	inactive; negative	active; positive	–
Nc1ccn([C@@H]2O[C@H](CO)[C@@H](O)[C@@H]2O)c(=O)n1	inactive; negative	inactive; negative	inactive; negative	inactive; negative	inactive; negative	inactive; negative	inactive; negative	inactive; negative	inactive; negative	inactive; negative	inactive; negative	inactive; negative	–
Cc1c(N)nc([C@H](CC(N)=O)NC[C@H](N)C(N)=O)nc1C(=O)N[C@H](C(=O)N[C@H](C)[C@@H](O)[C@H](C)C(=O)N[C@H](C(=O)NCCc1nc(-c2nc(C(=O)NCCCNCCCN=C(N)CC3CCC(Cl)CC3)cs2)cs1)[C@@H](C)O)[C@@H](O[C@@H]1O[C@@H](CO)[C@@H](O)[C@H](O)[C@@H]1O[C@H]1O[C@H](CO)[C@@H](O)[C@H](OC(N)=O)[C@@H]1O)c1cnc[nH]1 (some centres not stated)	–	–	–	–	–	–	–	–	–	–	–	–	mutagenic call (Test System: AMES SALMONELLA TYPHIMURIUM, Strain/Indicator: TA94, Metabolic Activation: NONE, Method: PREINCUBATION): active; positive; mutagenic call (Test System: AMES SALMONELLA TYPHIMURIUM, Strain/Indicator: TA102, Metabolic Activation: NONE, Method: PREINCUBATION): active; positive
